For series [1], the system named is mdx mice. The series can be described thus: In vivo nerve evoked torque and eccentric injury of the gastrocnemius muscle in mdx mice. Also noted: species or system mouse. The following applies: 20 eccentric contractions of gastrocnemius, FIG. 2D. The method, then: FIGS. 2A-2D illustrate that targeting microtubule density in vivo is solely sufficient to decrease contraction-induced injury in mdx mice. Nerve evoked torque and eccentric injury of the gastrocnemius muscle in vivo (FIG. 2A). […] Normalized torque records of the initial (time=0; wild-type in black, mdx in red) and 20th (grey) eccentric contractions (FIG. 2C).
Skeletal Muscle Function. Evan's blue dye (EBD) (5 μg/μl solution in PBS; 5 μl/g body weight) can be injected I.P. 24 hrs before the assay. The in vivo assessment of the nerve evoked isometric force vs. stimulation frequency relationship of the gastrocnemius can be determined as described in the art. The maximal isometric force (post hoc normalized to estimated cross sectional area) can be taken as the measure of functional quality of the muscle. […]
Susceptibility to contraction injury (skeletal muscle) can be assessed across each treatment cohort. As in FIG. 2, the % force deficit after 20 eccentric contractions of the gastrocnemius muscle can be determined. […] Thirty minutes after the last eccentric contraction, blood (orbital sinus) can be collected and analyzed for creatine kinase (CK) activity. […] After the trials, the muscle tissue can be processed and % EBD positive fibers can be used to quantitate the extent of muscle damage at rest (uninjured leg) or with injury.

Series [2] deals with mdx mice. Put plainly: Isoproterenol cardiac stress test in mdx mice. The format is in vivo, mouse. As for the experimental part:
FIGS. 5A-5D illustrate that colchicine blunts isoproterenol-induced cardiac damage in mdx and prevents cardiac arrhythmias. Wild-type and mdx mice were injected with Evan's blue dye one day prior then underwent an isoproterenol cardiac stress test and heart rate measured. […] Conversely, mdx mice cannot upregulate their heart rate to the same extent (˜2 fold) and only do so for a short period (30-45 min) before suffering severe arrhythmias and cardiac death, with only 10% survival.
Isoproterenol Cardiac Stress and Sarcolemmal Damage of the Heart. Catecholaminergic work-load stress induces atrial fibrillation (AF), ventricular tachycardia (VT) and sudden cardiac death (SCD) in mdx mice and this can be prevented by colchicine treatment (FIG. 5). To assess if colchicine pro-drugs prevent AF, VT and SCD, Evan's blue dye (EBD) (5 μg/μl solution in PBS; 5 μl/g body weight) can be injected I.P. 24 hrs before the assay. Mice are first anesthetized with sodium pentobarbital, and the heart rate monitored by a single-lead electrocardiogram. Isoproterenol is then used to pharmacologically increase the level of mechanical stress imposed on the heart. The mice are killed 3 hours after the administration of isoproterenol and the heart mounted in cryomatrix, sectioned and assessed for sarcolemmal damage.

The next series concerns mdx muscle fibers. Put plainly: X-ROS, Ca2+ signaling and microtubule density in mdx muscle fibers in vitro. The format is cell-based, mouse. The source says: FIGS. 1A-1E illustrate that microtubules underlie dysfunction in DMD. Aggregate DFF signals from WT (Black; n=5) and mdx (Red; n=6) muscle fibers (FIG. 1A). Mean values from A show a significant increase in X-ROS in the mdx (*p<0.05) that is blunted by colchicine (FIG. 1B). X-ROS leads to Ca^2+ influx that is blocked by microtubule depolymerization (FIG. 1C). Microtubule density is elevated in mdx fibers and reduced by colchicine (FIGS. 1D and 1E).
In murine DMD (mdx), it has been discovered that disease-driven alterations in microtubule network density and properties underscore the deleterious excess of Nox2-ROS and Ca^2+ signals in skeletal muscle and heart. Using colchicine, a drug that promotes microtubule depolymerization, it has been shown that reducing microtubule density normalized the dysregulated ROS and Ca^2+ signaling in DMD muscle fibers in vitro (see FIG. 1). […] The significance of these pre-clinical discoveries was bolstered by transcriptional evidence (RNASeq) for microtubule excess in muscle biopsy samples from affected DMD patients.

The subject of another series is OCY-293 cells. Put plainly: In vitro microtubule destabilization in OCY-293 cells stably expressing GFP-tubulin. The format is cell-based. The following applies: 10-120 minutes, 0.3-100 μM. As for the experimental part:
Cell treatment: OCY-293 cells stably expressing GFP-tubulin were cultured in 96-well plates at 37° C. in modified DMEM. […] Control cells were treated with vehicle. DAPI was added to each well to identify the nuclei. At each time point, cells were fixed with 4% paraformaldehyde and stored at 4° C. in the dark until imaging.
Imaging and Analysis: Cells were imaged to assess microtubule structure using fluorescence microscopy (Nikon TIe) with 5 images taken in different locations of each well. The images were digitized in two channels (GFP to visualize tubulin, and therefore microtubules; and DAPI to visualize nuclei). The microtubule area was traced, and nuclei were counted using predictive software (Nikon Elements v4.51) via unbiased automated measurements of each image in each of the wells. The microtubule area was normalized to the number of nuclei.

The conditions of series [3]: cited from earlier work.

Each structure is given as a SMILES string. “Also recorded” adds a separate entry of the source.

In the case of `COc1cc(C(C)=O)ccc1O` [apocynin], the “force loss / contraction injury after eccentric contractions” value with mdx mice [1] was “significant protection from force loss”.
With `COc1cc2c(c(OC)c1OC)-c1ccc(OC)c(=O)cc1[C@@H](NC(C)=O)CC2` [colchicine], in the series on mdx mice [1], the “force loss / contraction injury after eccentric contractions” value is “reduced contraction injury; also recorded: significant protection from force loss”. Also, the “cardiac death and arrhythmia” value in the series with mdx mice [2] (mdx mice after isoproterenol cardiac stress) is “prevents cardiac death and arrhythmia”. The same compound yielded a survival with mdx mice [2] (mdx mice after isoproterenol cardiac stress (untreated mdx 10% survival)) of 90%. Moreover, in the series on mdx mice [2] (mdx mice, FIGS. 5C and 5D), the “cardiac integrity (histological analysis, Evan's blue)” value is “significant preservations of cardiac integrity”. In the series on mdx mice [2] (mdx mice, compared to untreated animals), the “increase in cardiac workload” value is “supports the increase in cardiac workload significantly”. Besides, the “Microtubule density in mdx fibers” value in the series with mdx muscle fibers (FIGS. 1D and 1E) is “reduced”. Also, in the series with mdx muscle fibers (in vitro, FIG. 1), the “dysregulated ROS and Ca2+ signaling in DMD muscle fibers” value is “normalized”. Besides, the “X-ROS (DFF signal) increase in mdx muscle fibers” value in the series on mdx muscle fibers (mdx muscle fibers, FIG. 1B) was “blunted”. Moreover, the “microtubule depolymerization (microtubule area normalized to number of nuclei)” value in the series on OCY-293 cells is listed as “rapid depolymerization at low concentrations”. Moreover, the “therapeutic window: lethal dose” value in series [3] (in vivo) is 16-30 × therapeutic dose. The “absorption, median” value in series [3] (oral) was 45%. Besides, in series [3] (orally dosed), the half-life (commonly the time needed for the level to fall by half in the phase considered) is 1 to 2.7 h and the “time of peak plasma concentration” value is 30 to 90 min.
Regarding `COc1cc2c(c(OC)c1OC)-c1ccc(OC)c(=O)cc1[C@@H](N(C)C(=O)OC(C)OC(C)=O)CC2` (stereo partly shown) [compound 7], in the series on OCY-293 cells, the “microtubule depolymerization (microtubule area normalized to number of nuclei)” value is “delayed and reduced depolymerization at all concentrations”.
Turning to `CCCCCCCCCCCCCCCC(=O)OCOC(=O)N(C)[C@H]1CCc2cc(OC)c(OC)c(OC)c2-c2ccc(OC)c(=O)cc21` [compound 10], the “microtubule depolymerization (microtubule area normalized to number of nuclei)” value in the series on OCY-293 cells is on record as “dampened depolymerization at higher concentrations only”.

These data come from patent publication US12433873B2, “Microtubule polymerization inhibitor prodrugs and methods of using the same” (University of Maryland, Baltimore, priority 2017, dated 2025).
